The supplement of paper PMC7695840
“And” between values parts separate entries of the source, which are not always exact repeats. Identical values can stand only once.

Columns and labels:
[1] = tested on: Staphylococcus aureus MW2 (mecA+); test: IC50 (growth, competition assay); details: cefoxitin: subinhibitory
Procedure, shortened: (§1)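 Pre-induced, 1:1-mixed fluorescent S. aureus MW2 mecA+ and ΔmecA strains were grown 20 h at 37 °C, 90% humidity, unshaken, in LB with a daily-set subinhibitory cefoxitin dose, in 1536-well plates. Compounds were given on five- or nine-point 2-fold gradients, in two dye-swapped replicates. DsRed (540/590) and GFP (485/520) were scaled per plate between single-strain control medians, with No Treatment then set to 0.5. Per-strain IC50 was the dose halving the No Treatment signal, or the maximal signal.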

[2] = tested on: Staphylococcus aureus MW2 delta-mecA (mecA-); test: IC50 (growth, competition assay); details: cefoxitin: subinhibitory
Procedure, shortened: as §1

Q: How did the IC50 ([1]; fluorescent label: DsRed) turn out when `C#CCCCCCCCCCCCC(O)CC(O)CO.C=CCCCCCCCCCCCC(O)CC(O)CO` (stereo not drawn) was run?
A: 16.4 µM

Q: What about the IC50 ([1]; fluorescent label: GFP) of the same compound?
A: 26.3 µM

Q: What about the IC50 ([2]; fluorescent label: DsRed) of the same compound?
A: < 9.85 µM

Q: What about the IC50 ([2]; fluorescent label: GFP) of the same compound?
A: < 9.85 µM

Q: Which results are given for `CC(C)(C)c1nc(-c2cccc(NS(=O)(=O)c3c(F)cccc3F)c2F)c(-c2ccnc(N)n2)s1`?
A: IC50 ([1]; fluorescent label: DsRed): 35 µM; IC50 ([1]; fluorescent label: GFP): 79.2 µM; IC50 ([2]; fluorescent label: DsRed): < 9.85 µM; IC50 ([2]; fluorescent label: GFP): < 9.85 µM

Q: For `CC(C)N(CCC(=O)c1ccc2ccccc2c1)Cc1ccccc1`, which IC50 ([1]; fluorescent label: DsRed) is on record?
A: < 9.85 µM and 16.8 µM

Q: What about the IC50 ([1]; fluorescent label: GFP) of the same compound?
A: 14.1 µM and 22.4 µM

Q: And the IC50 ([2]; fluorescent label: DsRed)?
A: < 9.85 µM

Q: What about the IC50 ([2]; fluorescent label: GFP) of the same compound?
A: < 9.85 µM

Q: Which IC50 ([1]; fluorescent label: DsRed) does the source give for `CC1(C)C(=O)N(CCN2CCC(C(=O)c3ccc(F)cc3)CC2)c2ccccc21` here?
A: 38.6 µM

Q: What about the IC50 ([1]; fluorescent label: GFP) of the same compound?
A: 98.8 µM

Q: What about the IC50 ([2]; fluorescent label: DsRed) of the same compound?
A: 54.1 µM

Q: And the IC50 ([2]; fluorescent label: GFP)?
A: 16.1 µM

Q: Which results are given for `CCN(CC)CCN(Cc1ccc(-c2ccc(C(F)(F)F)cc2)cc1)C(=O)Cn1c(SCc2ccc(F)cc2)nc(=O)c2c1CCC2`?
A: IC50 ([1]; fluorescent label: DsRed): < 9.85 µM; IC50 ([1]; fluorescent label: GFP): 10.2 µM; IC50 ([2]; fluorescent label: DsRed): < 9.85 µM; IC50 ([2]; fluorescent label: GFP): < 9.85 µM

Q: How did the IC50 ([1]; fluorescent label: DsRed) turn out when `CCN(CC)CCOc1ccc(Nc2ncc3cc(-c4c(Cl)cccc4Cl)c(=O)n(C)c3n2)cc1` was run?
A: 85.1 µM

Q: And the IC50 ([1]; fluorescent label: GFP)?
A: 106 µM

Q: And the IC50 ([2]; fluorescent label: DsRed)?
A: 30.6 µM

Q: What about the IC50 ([2]; fluorescent label: GFP) of the same compound?
A: 36.5 µM

Q: How did the IC50 ([1]; fluorescent label: DsRed) turn out when `CCc1cc(-c2n[nH]c(C)c2-c2ccc3c(c2)OCCO3)c(O)cc1O` was run?
A: 82.7 µM

Q: What about the IC50 ([1]; fluorescent label: GFP) of the same compound?
A: 102 µM

Q: And the IC50 ([2]; fluorescent label: DsRed)?
A: 15.4 µM

Q: And the IC50 ([2]; fluorescent label: GFP)?
A: < 9.85 µM

Q: What does the source list for `CCc1ccc(/C=C2/SC(=S)NC2=O)cc1`?
A: IC50 ([1]; fluorescent label: DsRed): < 9.85 µM; IC50 ([1]; fluorescent label: GFP): < 9.85 µM; IC50 ([2]; fluorescent label: DsRed): < 9.85 µM; IC50 ([2]; fluorescent label: GFP): < 9.85 µM

Q: For `CCn1cnc2c(Nc3cccc(Cl)c3)nc(N[C@@H]3CCCC[C@@H]3N)nc21`, which IC50 ([1]; fluorescent label: DsRed) is on record?
A: 65.8 µM

Q: What about the IC50 ([1]; fluorescent label: GFP) of the same compound?
A: 78.3 µM

Q: What about the IC50 ([2]; fluorescent label: DsRed) of the same compound?
A: 15.2 µM

Q: What about the IC50 ([2]; fluorescent label: GFP) of the same compound?
A: 17 µM

Q: How did the IC50 ([1]; fluorescent label: DsRed) turn out when `CNCc1ccc(C)c(NC(=O)c2ccc(Nc3nc(-c4ccccc4)c4ccccc4n3)cc2)c1` was run?
A: 15.9 µM

Q: What about the IC50 ([1]; fluorescent label: GFP) of the same compound?
A: 14.5 µM

Q: What about the IC50 ([2]; fluorescent label: DsRed) of the same compound?
A: < 9.85 µM

Q: And the IC50 ([2]; fluorescent label: GFP)?
A: < 9.85 µM

Q: With `CNc1nc(-c2ccc3c(N)n[nH]c3c2)cc(N2C[C@@H](C(=O)NC3CCCCC3)CC[C@H]2C)n1` as the compound, how does the IC50 ([1]; fluorescent label: DsRed) read?
A: 111 µM

Q: What about the IC50 ([1]; fluorescent label: GFP) of the same compound?
A: 111 µM

Q: What about the IC50 ([2]; fluorescent label: DsRed) of the same compound?
A: 51.4 µM

Q: What about the IC50 ([2]; fluorescent label: GFP) of the same compound?
A: 26.4 µM

Q: For `COC(=O)C1=C(C)NC(C)=C(C(=O)OC)C1c1cccc(NC(=O)NCCCN2CCC(c3cccc(OC)c3)CC2)c1`, which IC50 ([1]; fluorescent label: DsRed) is on record?
A: 45.5 µM

Q: And the IC50 ([1]; fluorescent label: GFP)?
A: 54.8 µM

Q: And the IC50 ([2]; fluorescent label: DsRed)?
A: 18.2 µM

Q: And the IC50 ([2]; fluorescent label: GFP)?
A: 13.4 µM

Q: For `COc1cc2c(Oc3ccc(NC(=O)C4(C(=O)Nc5ccc(F)cc5)CC4)cc3F)ccnc2cc1OCCCN1CCOCC1`, which IC50 ([1]; fluorescent label: DsRed) is on record?
A: 41.9 µM

Q: And the IC50 ([1]; fluorescent label: GFP)?
A: 57.4 µM

Q: What about the IC50 ([2]; fluorescent label: DsRed) of the same compound?
A: 13.2 µM

Q: What about the IC50 ([2]; fluorescent label: GFP) of the same compound?
A: 12.1 µM

Q: For `COc1ccc(CCN(C)CCCOc2ccc(S(=O)(=O)c3c(C(C)C)n(C)c4ccccc34)cc2)cc1OC`, which IC50 ([1]; fluorescent label: DsRed) is on record?
A: 14.8 µM

Q: And the IC50 ([1]; fluorescent label: GFP)?
A: 14.9 µM

Q: And the IC50 ([2]; fluorescent label: DsRed)?
A: < 9.85 µM

Q: What about the IC50 ([2]; fluorescent label: GFP) of the same compound?
A: < 9.85 µM

Q: Which IC50 ([1]; fluorescent label: DsRed) does the source give for `COc1ccc(NC(=O)c2ccc(-c3ccc(-c4noc(C)n4)cc3C)cc2)cc1N1CCN(C)CC1` here?
A: 30.1 µM

Q: What about the IC50 ([1]; fluorescent label: GFP) of the same compound?
A: 44.9 µM

Q: What about the IC50 ([2]; fluorescent label: DsRed) of the same compound?
A: < 9.85 µM

Q: What about the IC50 ([2]; fluorescent label: GFP) of the same compound?
A: 12.2 µM

Q: Which results are given for `COc1ccc(NS(=O)(=O)c2sc3ccc(Cl)cc3c2C)cc1N1CCNCC1`?
A: IC50 ([1]; fluorescent label: DsRed): 102 µM; IC50 ([1]; fluorescent label: GFP): 108 µM; IC50 ([2]; fluorescent label: DsRed): 22.7 µM; IC50 ([2]; fluorescent label: GFP): 16.5 µM

Q: With `COc1ccc2c(c1)CCC1C2CCC2(C)C(NCCCCCCN3C(=O)C=CC3=O)CCC12` (stereo not drawn) as the compound, how does the IC50 ([1]; fluorescent label: DsRed) read?
A: > 150 µM

Q: What about the IC50 ([1]; fluorescent label: GFP) of the same compound?
A: > 150 µM

Q: What about the IC50 ([2]; fluorescent label: DsRed) of the same compound?
A: 46.3 µM

Q: And the IC50 ([2]; fluorescent label: GFP)?
A: 44.2 µM
